Measurements: patent US20100120700A1, “METHODS AND COMPOSITIONS FOR TREATING CERVICAL CANCER” (priority 2000, published 2010)
“And” between values parts separate entries of the source, which are not always exact repeats. Equal entries are not always repeated.

Experiments:
Experiment in all cases: G assay PDZ-PL binding
[1] = molecular target: T1, EBP50 #168.2 domain 2 (Homo sapiens, UniProt O14745); settings: peptide 10 uM, protein 5
T1 construct: made in house; host or cells: E. coli (DH5alpha, BL21 or JM109)
T1 sequence (O14745 with tags, fused parts or gaps): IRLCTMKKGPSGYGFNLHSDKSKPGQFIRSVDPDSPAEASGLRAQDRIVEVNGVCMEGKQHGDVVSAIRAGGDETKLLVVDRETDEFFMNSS
Outline: (§1)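 Plate ELISA: anti-GST antibody coat, BSA block, then GST/PDZ fusion (GST alone as negative control). Biotinylated PL peptide 20 uM (10 uM in G′ variant) added, 10 min 4 °C plus 20 min 25 °C; streptavidin-HRP, TMB, absorbance 450 nm.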

[2] = molecular target: T2, EBP50 #341.1 domain 1 (Homo sapiens, UniProt O14745); settings: peptide 10 uM, protein 5
T2 construct: made in house; host or cells: E. coli (DH5alpha or BL-21)
T2 sequence (O14745 with tags, fused parts or gaps): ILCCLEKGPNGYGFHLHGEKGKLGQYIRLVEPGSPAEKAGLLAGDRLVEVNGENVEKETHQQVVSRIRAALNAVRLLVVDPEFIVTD
Outline: as §1

[3] = molecular target: T3, ELFIN 1 domain 1 (Homo sapiens, UniProt O00151, G21R); settings: peptide 10 uM, protein 5
T3 construct: made in house; host or cells: E. coli (DH5alpha, BL21 or JM109), vector pGEX-3X
T3 sequence (O00151 2-93 G21R): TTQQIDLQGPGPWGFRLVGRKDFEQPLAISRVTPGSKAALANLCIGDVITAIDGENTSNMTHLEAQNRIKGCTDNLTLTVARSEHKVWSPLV
Outline: as §1

[4] = molecular target: T4, FLJ12615 domain 1 (Homo sapiens, UniProt Q8N3R9); settings: peptide 10 uM, protein 5
T4 construct: made in house; host or cells: E. coli (DH5alpha, BL21 or JM109)
T4 sequence (Q8N3R9 247-343): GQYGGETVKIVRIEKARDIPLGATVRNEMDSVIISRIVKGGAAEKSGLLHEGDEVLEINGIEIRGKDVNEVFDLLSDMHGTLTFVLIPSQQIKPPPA
Outline: as §1

[5] = molecular target: T5, INADL domain 3 (Homo sapiens, UniProt Q8NI35); settings: peptide 10 uM, protein 5
T5 construct: made in house; host or cells: E. coli (DH5alpha, BL21 or JM109)
T5 sequence (Q8NI35 with tags, fused parts or gaps): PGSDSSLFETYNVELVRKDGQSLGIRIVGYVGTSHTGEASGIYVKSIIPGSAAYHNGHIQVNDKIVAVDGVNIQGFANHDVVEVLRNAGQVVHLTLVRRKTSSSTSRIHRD
Outline: as §1

[6] = molecular target: T6, KIAA1526 #126.1 domain 2 (Homo sapiens, UniProt Q9P202, G331W); settings: peptide 10 uM, protein 5
T6 construct: made in house; host or cells: E. coli (DH5alpha, BL21 or JM109)
T6 sequence (Q9P202 272-371 G331W): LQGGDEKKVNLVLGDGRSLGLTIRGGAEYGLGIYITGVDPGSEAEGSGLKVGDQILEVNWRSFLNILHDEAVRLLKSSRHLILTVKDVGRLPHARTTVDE
Outline: as §1

[7] = molecular target: T7, MAGI 1 domain 2 (Homo sapiens, UniProt Q96QZ7)
T7 construct: made in house; host or cells: E. coli (DH5alpha, BL21 or JM109)
T7 sequence (Q96QZ7 463-566): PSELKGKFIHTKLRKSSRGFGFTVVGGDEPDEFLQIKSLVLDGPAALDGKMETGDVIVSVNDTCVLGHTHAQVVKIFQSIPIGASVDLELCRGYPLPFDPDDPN
Outline: as §1

[8] = molecular target: T8, Magi2 domain 3 (Homo sapiens, UniProt Q86UL8); settings: peptide 10 uM, protein 5
T8 construct: made in house; host or cells: E. coli (DH5alpha or BL-21)
T8 sequence (Q86UL8 with tags, fused parts or gaps): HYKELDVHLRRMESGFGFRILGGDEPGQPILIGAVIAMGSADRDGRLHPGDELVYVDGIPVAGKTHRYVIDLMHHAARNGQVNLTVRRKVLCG
Outline: as §1

[9] = molecular target: T9, Numb BP domain 1 (Homo sapiens, UniProt Q8TBB1); settings: peptide 10 uM, protein 5
T9 construct: made in house; host or cells: E. coli (DH5alpha, BL21 or JM109)
T9 sequence (Q8TBB1 with tags, fused parts or gaps): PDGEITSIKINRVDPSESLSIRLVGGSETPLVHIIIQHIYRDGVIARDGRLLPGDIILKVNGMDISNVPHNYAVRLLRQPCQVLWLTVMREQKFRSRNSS
Outline: as §1

[10] = molecular target: T10, PIST domain 1 (Homo sapiens, UniProt Q9HD26); settings: peptide 10 uM, protein 5
T10 construct: made in house; host or cells: E. coli (DH5alpha or BL-21)
Outline: as §1

[11] = molecular target: T11, SSTRIP domain 1 (Homo sapiens, UniProt Q9Y566); settings: peptide 10 uM, protein 5
T11 construct: made in house; host or cells: E. coli (DH5alpha, BL21 or JM109)
T11 sequence (Q9Y566 with tags, fused parts or gaps): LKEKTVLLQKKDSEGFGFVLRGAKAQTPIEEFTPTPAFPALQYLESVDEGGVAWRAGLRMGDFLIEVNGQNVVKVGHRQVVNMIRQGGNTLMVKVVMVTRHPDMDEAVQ
Outline: as §1

[12] = molecular target: T12, TIP1 domain 1 (Homo sapiens, UniProt O14907); settings: vs GST only well, peptide 10 uM, protein 5
T12 construct: made in house; host or cells: E. coli (DH5alpha, BL21 or JM109)
T12 sequence (O14907 14-116): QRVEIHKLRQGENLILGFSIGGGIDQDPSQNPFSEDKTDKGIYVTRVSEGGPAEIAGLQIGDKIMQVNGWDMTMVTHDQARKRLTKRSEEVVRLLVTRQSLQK
Outline: as §1

20 mer peptide corresponding to the C-terminus of HPV16 E6 (PDZ ligand), biotinylated in binding assays; ends SSRTRRETQL (SEQ ID NO: 13) [HPV E6 #16]
Ave OD ([1]; A450 nm): 0.3455
OD S/N ([1]; vs GST only well): 1.99
Ave OD ([2]; A450 nm): 0.43
OD S/N ([2]; vs GST only well): 1.65
Ave OD ([3]; A450 nm): 0.66
OD S/N ([3]; vs GST only well): 3.39
Ave OD ([4]; A450 nm): 0.4605
OD S/N ([4]; vs GST only well): 2.24
Ave OD ([5]; A450 nm): 0.485
OD S/N ([5]; vs GST only well): 1.86
Ave OD ([6]; A450 nm): 0.4625
OD S/N ([6]; vs GST only well): 1.87
Ave OD ([7]; A450 nm, MAGI 1 domain 2, peptide 10 uM, protein 5): 4.1125
binding to MAGI-1 second PDZ domain (qualitative) ([7]; G assay / Matrix TM assay, called MAGI 1 domain 1 in b521 (nomenclature b497)): bound with the highest relative affinity
OD S/N ([7]; vs GST only well, MAGI 1 domain 2, peptide 10 uM, protein 5): 19.54
Ave OD ([8]; A450 nm): 0.4165 and 0.359
OD S/N ([8]; vs GST only well): 1.98 and 1.65
Ave OD ([9]; A450 nm): 0.352
OD S/N ([9]; vs GST only well): 3.17
Ave OD ([10]; A450 nm): 0.3855
OD S/N ([10]; vs GST only well): 1.96
Ave OD ([11]; A450 nm): 0.467
OD S/N ([11]; vs GST only well): 3.28
OD S/N [12]: 8.24 and 5.67
